Usually IC50 stands for the midpoint of a concentration-inhibition curve.

The values that follow come from patent publication US11702422B2, “Imidazopyridazines as modulators of IL-17” (Janssen Pharmaceutica NV, priority 2020, dated 2023).

For assay [1], the target named is IL-17A(FLAG-Tagged): IL-17RA(His-Tagged) (Homo sapiens, UniProt Q16552, K93Q). The assay can be described thus: IL-17A(FLAG-Tagged): IL-17RA(His-Tagged) Binding Disruption Eu-HTRF Assay. The note with it: IL-17A/IL-17RA binding disruption, simple average if tested more than once. Summed up: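 IC50 comes from a one-site competition fit of the HTRF 665/620 nm ratio. Compound dilutions (2-fold, 22 points) were held 1 h rt with FLAG-tagged IL-17A dimer, then His-tagged IL-17RA plus Eu-cryptate anti-FLAG and D2 anti-His antibodies were added for 2 h rt.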
UniProt Q16552, sequence (Q16552 with tags, fused parts or gaps K93Q): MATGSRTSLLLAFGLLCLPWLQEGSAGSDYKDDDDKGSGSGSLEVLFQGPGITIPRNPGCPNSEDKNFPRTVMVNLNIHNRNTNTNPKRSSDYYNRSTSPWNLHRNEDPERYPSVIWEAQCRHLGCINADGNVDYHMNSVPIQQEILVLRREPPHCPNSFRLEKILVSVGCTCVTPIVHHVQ
A general note: TR-FRET usually uses a lanthanide donor and a delayed reading to cut background.

For assay [2], the system named is IL-17A-induced G-CSF production in human normal keratinocyte (NHK). The assay can be described thus: NHK Assay: IL-17A-induced G-CSF production in human normal keratinocytes. The format is cell-based. The note with it: 24 h, adult normal human keratinocytes, IL-17A 5 ng/mL, simple average if tested more than once. The procedure, abridged:
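HTRF read-out of supernatant G-CSF, quantified from a standard curve, gave IC50 values. Adult keratinocytes, 3000-4000 cells/well, received human IL-17A (5 ng/mL final) pre-mixed 1 h at rt with compound, in 5% FBS and 0.2% DMSO, 24 h at 37° C.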

In the case of `[2H]C([2H])([2H])n1nccc1C(=O)N[C@H](c1cn2ncc(C(NC(=O)CCC(F)(F)F)C3CCC3)cc2n1)C1CCC(F)(F)CC1` (single isomer, unassigned) [Example 492, N—((S)-(7-((R*)-Cyclobutyl(4,4,4-trifluorobutanamido)methyl)imidazo[1,2-b]pyridazin-2-yl)(4,4-difluorocyclohexyl)methyl)-1-(methyl-d3)-1H-pyrazole-5-carboxamide], the IC50 was found to be 0.065 µM in assay [1] and 0.095 µM in assay [2] (Homo sapiens, Keratinocyte).

On to `CC(CC(=O)N[C@@H](c1cnn2cc([C@@H](NC(=O)c3conc3C3CC3)C3CCC(F)(F)CC3)nc2c1)C1CC1)C(F)(F)F` (single isomer, unassigned) [Example 129, 3-Cyclopropyl-N—((S)-(7-((R)-cyclopropyl((S*)-4,4,4-trifluoro-3-methylbutanamido)methyl)imidazo[1,2-b]pyridazin-2-yl)(4,4-difluorocyclohexyl)methyl)isoxazole-4-carboxamide], for which the values for the IC50 in assay [1] and in assay [2] were 0.051 µM and 0.25 µM, respectively.

As for `O=C(CCC(F)(F)F)N[C@@H](c1cnn2cc([C@@H](NC(=O)c3cccc(N4CCCC4=O)c3)C3CCC(F)(F)CC3)nc2c1)C1CC1` [Example 163, N—((S)-(7-((R)-Cyclopropyl(4,4,4-trifluorobutanamido)methyl)imidazo[1,2-b]pyridazin-2-yl)(4,4-difluorocyclohexyl)methyl)-3-(2-oxopyrrolidin-1-yl)benzamide], the concentration for half-maximal inhibition (IC50) in assay [1] is 0.12 µM; in assay [2] (Homo sapiens, Keratinocyte), 0.1 µM.

Consider `Cc1noc(C)c1C(=O)N[C@H](c1cn2ncc([C@H](NC(=O)CCC(F)(F)F)C3CC3)cc2n1)C1CCC(F)(F)CC1` [Example 80, N—((S)-(7-((R)-Cyclopropyl(4,4,4-trifluorobutanamido)methyl)imidazo[1,2-b]pyridazin-2-yl)(4,4-difluorocyclohexyl)methyl)-3,5-dimethylisoxazole-4-carboxamide], for which the IC50 in assay [1] was 17 µM; in assay [2] (Homo sapiens, Keratinocyte), > 20 µM.

With `CC(C)n1nccc1C(=O)N[C@H](c1cn2ncc(C(CO)NC(=O)CC3CC(F)(F)C3)cc2n1)C1CCC(F)(F)CC1` (single isomer, unassigned) [Example 533, N—((S)-(7-((S*)-1-(2-(3,3-Difluorocyclobutyl)acetamido)-2-hydroxyethyl)imidazo[1,2-b]pyridazin-2-yl)(4,4-difluorocyclohexyl)methyl)-1-isopropyl-1H-pyrazole-5-carboxamide], the values for the half-maximal inhibitory concentration (IC50) in assay [1] and in assay [2] were 0.48 µM and 0.15 µM, respectively.

`CC(C)C(NC(=O)CCC(F)(F)F)c1cnn2cc([C@@H](NC(=O)c3ccnn3C(C)C)C3CCC(F)(F)CC3)nc2c1` (single isomer, unassigned) [Example 155, N—((S)-(4,4-Difluorocyclohexyl)(7-((S*)-2-methyl-1-(4,4,4-trifluorobutanamido)propyl)imidazo[1,2-b]pyridazin-2-yl)methyl)-1-isopropyl-1H-pyrazole-5-carboxamide]: the IC50 in assay [1] turned out to be 0.13 µM; in assay [2], 0.053 µM.

In the case of `O=C(CC1CC(F)(F)C1)N[C@@H](c1cnn2cc([C@@H](NC(=O)c3nonc3C3CC3)C3CCC(F)(F)CC3)nc2c1)C1CCOCC1` (relative stereo) [Example 536, 4-Cyclopropyl-N—((S)-(7-((R*)-1-(2-(3,3-difluorocyclobutyl)acetamido)(tetrahydro-2H-pyran-4-yl)methylimidazo[1,2-b]pyridazin-2-yl)(4,4-difluorocyclohexyl)methyl)-1,2,5-oxadiazole-3-carboxamide], the 50% inhibitory concentration (IC50) came to 0.049 µM in assay [1] and 0.012 µM in assay [2] (Homo sapiens, Keratinocyte).

As for `Cc1nonc1C(=O)N[C@H](c1cn2ncc(C(C)NC(=O)CCC(F)(F)F)cc2n1)C1CCC(F)(F)CC1` (single isomer, unassigned) [Example 510, N—((S)-(4,4-Difluorocyclohexyl)(7-((S*)-1-(4,4,4-trifluorobutanamido)ethyl)imidazo[1,2-b]pyridazin-2-yl)methyl)-4-methyl-1,2,5-oxadiazole-3-carboxamide], the concentration for half-maximal inhibition (IC50) worked out at 0.083 µM in assay [1] and 0.44 µM in assay [2].

As for `Cc1nonc1C(=O)N[C@H](c1cn2ncc([C@H](NC(=O)CC(C)(C)C(F)(F)F)C3CC3)cc2n1)C1CCC(F)(F)CC1` [Example 253, N—((S)-(7-((R)-Cyclopropyl(4,4,4-trifluoro-3,3-dimethylbutanamido)methyl)imidazo[1,2-b]pyridazin-2-yl)(4,4-difluorocyclohexyl)methyl)-4-methyl-1,2,5-oxadiazole-3-carboxamide], the IC50 in assay [1] came to 0.22 µM; in assay [2] (Homo sapiens, Keratinocyte), 0.76 µM.

Turning to `O=C(CCC(F)(F)F)N[C@@H](c1cnn2cc([C@@H](NC(=O)c3cnoc3C3CC3)C3CCC(F)(F)CC3)nc2c1)C1CC1` [Example 84, 5-Cyclopropyl-N—((S)-(7-((R)-cyclopropyl(4,4,4-trifluorobutanamido)methyl)imidazo[1,2-b]pyridazin-2-yl)(4,4-difluorocyclohexyl)methyl)isoxazole-4-carboxamide], the concentration for half-maximal inhibition (IC50) came to 0.08 µM in assay [1] and 0.16 µM in assay [2] (Homo sapiens, Keratinocyte).

Turning to `Cc1nonc1C(=O)N[C@H](c1cn2ncc([C@H](NC(=O)CO[C@@H](C)C(F)(F)F)C3CC3)cc2n1)C1CCC(F)(F)CC1` [Example 333, N—((S)-(7-((R)-Cyclopropyl(2-(((S)-1,1,1-trifluoropropan-2-yl)oxy)acetamido)methyl)imidazo[1,2-b]pyridazin-2-yl)(4,4-difluorocyclohexyl)methyl)-4-methyl-1,2,5-oxadiazole-3-carboxamide], the half-inhibitory concentration (IC50) in assay [1] amounted to 0.18 µM; in assay [2] (Homo sapiens, Keratinocyte), 0.62 µM.

`CC(C)n1nccc1C(=O)N[C@H](c1cn2ncc(C(CO)NC(=O)CC3CC(F)(F)C3)cc2n1)C1CCC(F)(F)CC1` (single isomer, unassigned) [Example 532, N—((S)-(7-((R*)-1-(2-(3,3-Difluorocyclobutyl)acetamido)-2-hydroxyethyl)imidazo[1,2-b]pyridazin-2-yl)(4,4-difluorocyclohexyl)methyl)-1-isopropyl-1H-pyrazole-5-carboxamide]: the values for the concentration for half-maximal inhibition (IC50) in assay [1] and in assay [2] were 1.5 µM and 2.8 µM, respectively.

In the case of `Cc1nocc1C(=O)N[C@H](c1cn2ncc([C@H](NC(=O)CC3CC(F)(F)C3)C3CC3)cc2n1)C1CCC(F)(F)CC1` [Example 120, N—((S)-(7-((R)-Cyclopropyl(2-(3,3-difluorocyclobutyl)acetamido)methyl)imidazo[1,2-b]pyridazin-2-yl)(4,4-difluorocyclohexyl)methyl)-3-methylisoxazole-4-carboxamide], the IC50 is 0.048 µM in assay [1] and 0.15 µM in assay [2] (Homo sapiens, Keratinocyte).

Regarding `CC(C)n1nccc1C(=O)N[C@H](c1cn2ncc([C@H](NC(=O)CCC(F)F)C3CC3)cc2n1)C1CCC(F)(F)CC1` [Example 280, N—((S)-(7-((R)-Cyclopropyl(4,4-difluorobutanamido)methyl)imidazo[1,2-b]pyridazin-2-yl)(4,4-difluorocyclohexyl)methyl)-1-isopropyl-1H-pyrazole-5-carboxamide], the concentration for half-maximal inhibition (IC50) amounted to 0.054 µM in assay [1] and 0.12 µM in assay [2] (Homo sapiens, Keratinocyte).

Regarding `O=C(CCC(F)(F)F)N[C@@H](c1cnn2cc([C@@H](NC(=O)c3cccc(C(F)(F)F)n3)C3CCC(F)(F)CC3)nc2c1)C1CC1` [Example 221, N—((S)-(7-((R)-Cyclopropyl(4,4,4-trifluorobutanamido)methyl)imidazo[1,2-b]pyridazin-2-yl)(4,4-difluorocyclohexyl)methyl)-6-(trifluoromethyl)picolinamide], the half-maximal inhibitory concentration (IC50) in assay [1] is 16 µM; in assay [2] (Homo sapiens, Keratinocyte), > 20 µM.

Consider `CC(C)Oc1nocc1C(=O)N[C@H](c1cn2ncc([C@H](NC(=O)CC3CC(F)(F)C3)C3CC3)cc2n1)C1CCC(F)(F)CC1` [Example 292, N—((S)-(7-((R)-Cyclopropyl(2-(3,3-difluorocyclobutyl)acetamido)methyl)imidazo[1,2-b]pyridazin-2-yl)(4,4-difluorocyclohexyl)methyl)-3-isopropoxyisoxazole-4-carboxamide], for which the IC50 in assay [1] was determined as 0.22 µM; in assay [2] (Homo sapiens, Keratinocyte), 0.87 µM.

Consider `Cc1nonc1C(=O)N[C@H](c1cn2ncc([C@H](NC(=O)COCC(F)(F)F)C3CC3)cc2n1)C1CCC(F)(F)CC1` [Example 327, N—((S)-(7-((R)-Cyclopropyl(2-(2,2,2-trifluoroethoxy)acetamido)methyl)imidazo[1,2-b]pyridazin-2-yl)(4,4-difluorocyclohexyl)methyl)-4-methyl-1,2,5-oxadiazole-3-carboxamide], for which the IC50 in assay [1] was found to be 0.2 µM; in assay [2] (Homo sapiens, Keratinocyte), 0.89 µM.

`N#Cc1ccccc1C(=O)N[C@H](c1cn2ncc([C@H](NC(=O)CCC(F)(F)F)C3CC3)cc2n1)C1CCC(F)(F)CC1` [Example 208, 2-Cyano-N—((S)-(7-((R)-cyclopropyl(4,4,4-trifluorobutanamido)methyl)imidazo[1,2-b]pyridazin-2-yl)(4,4-difluorocyclohexyl)methyl)benzamide]: the concentration for half-maximal inhibition (IC50) is 5.3 µM in assay [1] and > 20 µM in assay [2] (Homo sapiens, Keratinocyte).

As to `O=C(CCC(F)(F)F)N[C@@H](c1cnn2cc([C@@H](NC(=O)c3ccccc3CC(F)(F)F)C3CCC(F)(F)CC3)nc2c1)C1CC1` [Example 231, N—((S)-(7-((R)-Cyclopropyl(4,4,4-trifluorobutanamido)methyl)imidazo[1,2-b]pyridazin-2-yl)(4,4-difluorocyclohexyl)methyl)-2-(2,2,2-trifluoroethyl)benzamide], the concentration for half-maximal inhibition (IC50) in assay [1] is 0.32 µM; in assay [2] (Homo sapiens, Keratinocyte), > 20 µM.
